Drawing on US20060194837A1, “Tetrahydroisoquinoline compounds” (priority 2004, published 2006), this text covers Ki for 24 molecules.

The Ki is the equilibrium dissociation constant of an inhibitor or competing ligand from its target.

One assay concerns the target T1, human H3 receptor (Homo sapiens, UniProt Q9Y5N1).
T1 construct: expressed in transfected cells
In words: H3 receptor binding (N-[3H]-α-methylhistamine displacement). The settings on record: membranes of SK-N-MC cells expressing cloned human H3 receptor, 0.8 nM N-[3H]-α-methylhistamine, 60 min at 25° C.

The next assay concerns the target T2, Rat SERT (Rattus norvegicus, UniProt P31652).
T2 construct: A rat brain without cerebellum (Zivic Laboratories, Inc.—Pittsburgh, Pa.) was homogenized; tissue Zivic Laboratories, Inc; host or cells: rat brain without cerebellum, membranes
The experiment in a line: Rat brain SERT binding ([3H]-citalopram displacement). The settings on record: rat brain membranes without cerebellum, 0.6 nM [3H]-citalopram, 60 min at 25° C. The procedure: The supernatant was removed and re-centrifuged at 15,000 rpm for 30 min. […] Membranes were incubated with 0.6 nM [^3H]-Citalopram plus/minus test compounds for 60 min at 25° C. and harvested by rapid filtration over GF/C glass fiber filters (pretreated with 0.3% polyethylenimine) followed by four washes with ice-cold buffer.

The target in another assay is T3, human SERT (Homo sapiens, UniProt P31645).
T3 construct: expressed in transfected cells; host or cells: HEK293 membranes
T3 sequence (P31645 whole entry): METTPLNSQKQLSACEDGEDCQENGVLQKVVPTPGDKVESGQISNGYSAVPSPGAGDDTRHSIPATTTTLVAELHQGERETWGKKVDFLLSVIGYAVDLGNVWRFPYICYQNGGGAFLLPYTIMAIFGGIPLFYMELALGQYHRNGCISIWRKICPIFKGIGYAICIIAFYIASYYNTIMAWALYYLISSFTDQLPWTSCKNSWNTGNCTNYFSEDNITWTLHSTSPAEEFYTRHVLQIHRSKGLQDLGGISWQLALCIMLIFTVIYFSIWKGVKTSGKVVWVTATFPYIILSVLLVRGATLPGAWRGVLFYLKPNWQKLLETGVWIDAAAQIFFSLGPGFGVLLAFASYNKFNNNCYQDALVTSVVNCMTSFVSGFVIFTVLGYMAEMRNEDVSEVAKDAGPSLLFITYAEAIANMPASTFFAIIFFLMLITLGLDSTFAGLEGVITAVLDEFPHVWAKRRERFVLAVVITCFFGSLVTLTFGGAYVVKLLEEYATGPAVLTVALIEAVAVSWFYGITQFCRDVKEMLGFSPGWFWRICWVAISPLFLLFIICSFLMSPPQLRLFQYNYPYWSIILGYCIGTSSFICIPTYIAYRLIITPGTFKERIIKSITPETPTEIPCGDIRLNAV
In words: Human SERT binding (3H-citalopram displacement). The settings on record: HEK293 membranes expressing human SERT, rt 1 h. On the procedure: Homogenized HEK293 (Human Embryonic Kidney) membranes expressing the human SERT were incubated with ^3H-citalopram (SERT) at rt for 1 h in 50 mM Tris, 120 mM NaCl, 5 mM KCl (pH 7.4). […] The membranes were washed and the radioactivity was counted as above.

Read-outs that look alike come from different tables or passages of the source.

T1 sequence (Q9Y5N1 whole entry): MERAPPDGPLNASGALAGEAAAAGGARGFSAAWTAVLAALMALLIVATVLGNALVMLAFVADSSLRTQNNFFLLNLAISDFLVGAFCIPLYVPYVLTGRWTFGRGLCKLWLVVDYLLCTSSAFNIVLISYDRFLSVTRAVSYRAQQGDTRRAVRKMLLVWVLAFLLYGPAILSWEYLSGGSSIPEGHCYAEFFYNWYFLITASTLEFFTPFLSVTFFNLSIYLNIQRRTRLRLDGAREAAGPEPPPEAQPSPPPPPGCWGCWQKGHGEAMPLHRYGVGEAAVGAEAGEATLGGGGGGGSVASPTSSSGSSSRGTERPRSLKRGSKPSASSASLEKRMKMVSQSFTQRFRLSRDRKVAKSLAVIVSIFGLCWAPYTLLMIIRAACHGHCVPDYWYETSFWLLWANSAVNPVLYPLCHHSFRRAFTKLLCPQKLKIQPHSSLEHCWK
T2 sequence (P31652 whole entry): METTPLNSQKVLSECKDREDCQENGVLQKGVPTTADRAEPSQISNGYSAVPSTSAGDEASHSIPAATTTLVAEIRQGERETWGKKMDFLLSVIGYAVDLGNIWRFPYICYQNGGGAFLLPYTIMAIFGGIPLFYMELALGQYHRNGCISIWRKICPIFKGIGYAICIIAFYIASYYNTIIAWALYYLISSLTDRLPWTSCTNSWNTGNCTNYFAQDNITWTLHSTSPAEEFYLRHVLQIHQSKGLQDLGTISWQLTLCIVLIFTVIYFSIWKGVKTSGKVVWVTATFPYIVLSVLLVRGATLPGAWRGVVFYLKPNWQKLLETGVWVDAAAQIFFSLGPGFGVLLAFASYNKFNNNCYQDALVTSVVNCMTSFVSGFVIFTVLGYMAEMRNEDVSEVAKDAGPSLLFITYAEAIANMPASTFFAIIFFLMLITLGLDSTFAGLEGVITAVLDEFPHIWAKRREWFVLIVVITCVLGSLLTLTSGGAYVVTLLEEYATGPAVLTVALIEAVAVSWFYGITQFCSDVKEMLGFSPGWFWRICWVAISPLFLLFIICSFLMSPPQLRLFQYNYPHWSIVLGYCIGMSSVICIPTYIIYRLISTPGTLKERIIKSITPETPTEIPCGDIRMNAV

In the case of `CCN1CCOC(COc2ccc3c(c2)CN(C)CC3c2ccc(OC)cc2)C1` (mixture of isomers) [Example 257, 7-(4-Ethyl-morpholin-2-ylmethoxy)-4-(4-methoxy-phenyl)-2-methyl-1,2,3,4-tetrahydro-isoquinoline], the results for the inhibition constant (Ki) on human H3 receptor, on Rat SERT (read-out: Rat SERT Ki) and at human SERT were 11 nM, 8 nM and 11 nM, respectively.
On to `COc1ccc(C2CN(C)Cc3cc(OCC4CN(C5CC5)CCO4)ccc32)cc1` (mixture of isomers) [Example 259, 7-(4-Cyclopropyl-morpholin-2-ylmethoxy)-4-(4-methoxy-phenyl)-2-methyl-1,2,3,4-tetrahydro-isoquinoline], for which the Ki at human H3 receptor came out at 13 nM; on Rat SERT (read-out: Rat SERT Ki), 13 nM; at human SERT it was 22 nM.
For `COc1ccc(C2CN(C)Cc3cc(OCCCN4CCCC(F)(F)C4)ccc32)cc1` (racemic) [Example 29, 7-[3-(3,3-Difluoro-piperidin-1-yl)-propoxy]-4-(4-methoxy-phenyl)-2-methyl-1,2,3,4-tetrahydro-isoquinoline], the inhibition constant Ki at Rat SERT (read-out: Rat SERT Ki) is 14 nM; on human SERT it was 8 nM.
On to `COc1ccc(C2CN(C)Cc3cc(OCCCN4CCC(F)CC4)ccc32)cc1F` (racemic) [Example 142, 4-(3-Fluoro-4-methoxy-phenyl)-7-[3-(4-fluoro-piperidin-1-yl)-propoxy]-2-methyl-1,2,3,4-tetrahydro-isoquinoline], for which the inhibition constant (Ki) is 3 nM at human H3 receptor, 4 nM on Rat SERT (read-out: Rat SERT Ki) and 7 nM at human SERT.
Consider `COc1ccc(C2CN(C)Cc3cc(OCCCN4CCC(F)CC4)ccc32)cc1` (single isomer, unassigned) [Example 1A, 7-[3-(4-Fluoro-piperidin-1-yl)-propoxy]-4-(4-methoxy-phenyl)-2-methyl-1,2,3,4-tetrahydro-isoquinoline], for which the Ki on Rat SERT (read-out: Rat SERT Ki) was 6 nM; at human SERT, 9 nM.
In the same order, the values of `COc1ccc(C2CN(C)Cc3cc(OCCCN4CCC(F)CC4)ccc32)cc1` (single isomer, unassigned) [Example 1B, 7-[3-(4-Fluoro-piperidin-1-yl)-propoxy]-4-(4-methoxy-phenyl)-2-methyl-1,2,3,4-tetrahydro-isoquinoline] are 2 nM and 3 nM.
For `COc1ccc(C2CN(C)Cc3cc(OCCCN4CCCC(F)(F)C4)ccc32)cc1` (single isomer, unassigned) [Example 29B, 7-[3-(3,3-Difluoro-piperidin-1-yl)-propoxy]-4-(4-methoxy-phenyl)-2-methyl-1,2,3,4-tetrahydro-isoquinoline], in that order: 8 nM and 6 nM.
Turning to `COc1ccc(C2CN(C)Cc3cc(OCCCN4CCC(C#N)CC4)ccc32)cc1` (single isomer, unassigned) [Example 37A, 1-{3-[4-(4-Methoxy-phenyl)-2-methyl-1,2,3,4-tetrahydro-isoquinolin-7-yloxy]-propyl}-piperidine-4-carbonitrile], the Ki at human H3 receptor amounted to 89 nM; on Rat SERT (read-out: Rat SERT Ki), 9 nM; at human SERT, 13 nM.
As for `CSc1ccc(C2CN(C)Cc3cc(OCCCN4CCC(F)CC4)ccc32)cc1` (single isomer, unassigned) [Example 153, 7-[3-(4-Fluoro-piperidin-1-yl)-propoxy]-2-methyl-4-(4-methylsulfanyl-phenyl)-1,2,3,4-tetrahydro-isoquinoline], the Ki at Rat SERT (Rat SERT Ki (nM)) and at human SERT was 2 nM each time.
With `CSc1ccc(C2CN(C)Cc3cc(OCCCN4CCC(F)CC4)ccc32)cc1` (single isomer, unassigned) [Example 154, 7-[3-(4-Fluoro-piperidin-1-yl)-propoxy]-2-methyl-4-(4-methylsulfanyl-phenyl)-1,2,3,4-tetrahydro-isoquinoline], the Ki is 5 nM at Rat SERT (Rat SERT Ki (nM)) and 4 nM at human SERT.
Regarding `COc1ccc(C2CN(C)Cc3cc(OCCCN4CCN(C(C)=O)CC4)ccc32)cc1` (stereo not shown) [Example 2, 1-(4-{3-[4-(4-Methoxy-phenyl)-2-methyl-1,2,3,4-tetrahydro-isoquinolin-7-yloxy]-propyl}-piperazin-1-yl)-ethanone], the Ki at human H3 receptor was determined as 70 nM; on Rat SERT (read-out: Rat SERT Ki), 13 nM; on human SERT it was 56 nM.
For `COc1ccc(C2CN(C)Cc3cc(OCCCN4CCN(C(=O)c5ccncc5)CC4)ccc32)cc1` (stereo not shown) [Example 4, (4-{3-[4-(4-Methoxy-phenyl)-2-methyl-1,2,3,4-tetrahydro-isoquinolin-7-yloxy]-propyl}-piperazin-1-yl)-pyridin-4-yl-methanone], in that order: 4000 nM, 33 nM and 21 nM.
Consider `COc1ccc(C2CN(C)Cc3cc(OCCCN4CCN(C(=O)C(C)C)CC4)ccc32)cc1` (stereo not shown) [Example 5, 1-(4-{3-[4-(4-Methoxy-phenyl)-2-methyl-1,2,3,4-tetrahydro-isoquinolin-7-yloxy]-propyl}-piperazin-1-yl)-2-methyl-propan-1-one], for which the Ki at human H3 receptor was 594 nM; at Rat SERT (read-out: Rat SERT Ki) it was 27 nM; on human SERT it was 18 nM.
For the molecule `COc1ccc(C2CN(C)Cc3cc(OCCCN4CCN(C(=O)C5CCC5)CC4)ccc32)cc1` (stereo not shown) [Example 6, Cyclobutyl-(4-{3-[4-(4-methoxy-phenyl)-2-methyl-1,2,3,4-tetrahydro-isoquinolin-7-yloxy]-propyl}-piperazin-1-yl)-methanone], the inhibitory constant (Ki) turned out to be 534 nM at human H3 receptor, 15 nM at Rat SERT (read-out: Rat SERT Ki) and 15 nM at human SERT.
On to `COc1ccc(C2CN(C)Cc3cc(OCCCN4CCN(C(=O)C5CC5)CC4)ccc32)cc1` (stereo not shown) [Example 7, Cyclopropyl-(4-{3-[4-(4-methoxy-phenyl)-2-methyl-1,2,3,4-tetrahydro-isoquinolin-7-yloxy]-propyl}-piperazin-1-yl)-methanone], for which the values for the Ki on human H3 receptor, at Rat SERT (read-out: Rat SERT Ki) and on human SERT were 315 nM, 14 nM and 14 nM, respectively.
On to `CCOC(=O)N1CCN(CCCOc2ccc3c(c2)CN(C)CC3c2ccc(OC)cc2)CC1` (stereo not shown) [Example 12, 4-{3-[4-(4-Methoxy-phenyl)-2-methyl-1,2,3,4-tetrahydro-isoquinolin-7-yloxy]-propyl}-piperazine-1-carboxylic acid ethyl ester], for which the Ki was 59 nM on human H3 receptor, 6 nM on Rat SERT (read-out: Rat SERT Ki) and 16 nM at human SERT.
On to `COc1ccc(C2CN(C)Cc3cc(OCCCN4CCN(C(=O)c5cccn5C)CC4)ccc32)cc1` (stereo not shown) [Example 13, (4-{3-[4-(4-Methoxy-phenyl)-2-methyl-1,2,3,4-tetrahydro-isoquinolin-7-yloxy]-propyl}-piperazin-1-yl)-(1-methyl-1H-pyrrol-2-yl)-methanone], for which the inhibitory constant (Ki) at human H3 receptor came to 2400 nM; at Rat SERT (read-out: Rat SERT Ki), 10 nM; at human SERT, 11 nM.
In the case of `COc1ccc(C2CN(C)Cc3cc(OCCCN4CCN(C(=O)c5cn(C)cn5)CC4)ccc32)cc1` (stereo not shown) [Example 14, (4-{3-[4-(4-Methoxy-phenyl)-2-methyl-1,2,3,4-tetrahydro-isoquinolin-7-yloxy]-propyl}-piperazin-1-yl)-(1-methyl-1H-imidazol-4-yl)-methanone], the figures for the inhibition constant (Ki) on human H3 receptor, on Rat SERT (read-out: Rat SERT Ki) and on human SERT were 2000 nM, 19 nM and 18 nM, respectively.
`COCCN(CCCOc1ccc2c(c1)CN(C)CC2c1ccc(OC)cc1)CCOC` (stereo not shown) [Example 17, Bis-(2-methoxy-ethyl)-{3-[4-(4-methoxy-phenyl)-2-methyl-1,2,3,4-tetrahydro-isoquinolin-7-yloxy]-propyl}-amine]: the inhibition constant Ki at human H3 receptor worked out at 273 nM; at Rat SERT (read-out: Rat SERT Ki) it was 10 nM; at human SERT, 7 nM.
Turning to `COc1ccc(C2CN(C)Cc3cc(OCCCN4CCC4)ccc32)cc1` (stereo not shown) [Example 34, 7-(3-Azetidin-1-yl-propoxy)-4-(4-methoxy-phenyl)-2-methyl-1,2,3,4-tetrahydro-isoquinoline], the inhibition constant (Ki) on Rat SERT (read-out: Rat SERT Ki) turned out to be 11 nM; at human SERT, 4 nM.
As to `CN1Cc2cc(OCCCN3CCC(F)CC3)ccc2C(c2ccc(S(C)(=O)=O)cc2)C1` (stereo not shown) [Example 51, 7-[3-(4-Fluoro-piperidin-1-yl)-propoxy]-4-(4-methanesulfonyl-phenyl)-2-methyl-1,2,3,4-tetrahydro-isoquinoline], the results for the inhibition constant (Ki) at Rat SERT (read-out: Rat SERT Ki) and at human SERT were 34 nM and 103 nM, respectively.
For the molecule `CSc1ccc(C2CN(C)Cc3cc(OCCCN4CCC(F)CC4)ccc32)cc1` (stereo not shown) [Example 52, 7-[3-(4-Fluoro-piperidin-1-yl)-propoxy]-2-methyl-4-(4-methylsulfanyl-phenyl)-1,2,3,4-tetrahydro-isoquinoline], the results for the inhibition constant (Ki) on Rat SERT (read-out: Rat SERT Ki) and at human SERT were 3 nM and 2 nM, respectively.
In the same order, the values of `COc1ccc(C2CN(C)Cc3cc(OCCCN4CCC(F)CC4)ccc32)cc1Cl` (stereo not shown) [Example 53, 4-(3-Chloro-4-methoxy-phenyl)-7-[3-(4-fluoro-piperidin-1-yl)-propoxy]-2-methyl-1,2,3,4-tetrahydro-isoquinoline] are 5 nM and 4 nM.
Take `COc1cccc(C2CN(C)Cc3cc(OCC4CCNCC4)ccc32)c1` (stereo not shown) [Example 241, 4-(3-Methoxy-phenyl)-2-methyl-7-(piperidin-4-ylmethoxy)-1,2,3,4-tetrahydro-isoquinoline]: the Ki on human H3 receptor came out at 39 nM; on human SERT, 10 nM.
